The values that follow are results of earlier work, collected in patent US20250127701A1, “Cosmetical use of a topically applicable rinse-of composition (RC)” (Wella Germany GmbH, priority 2023, published 2025).

Data set [1] addresses T1, olfactory receptor OR2AT4 (Homo sapiens, UniProt A6NND4).
T1 sequence (A6NND4 1-320): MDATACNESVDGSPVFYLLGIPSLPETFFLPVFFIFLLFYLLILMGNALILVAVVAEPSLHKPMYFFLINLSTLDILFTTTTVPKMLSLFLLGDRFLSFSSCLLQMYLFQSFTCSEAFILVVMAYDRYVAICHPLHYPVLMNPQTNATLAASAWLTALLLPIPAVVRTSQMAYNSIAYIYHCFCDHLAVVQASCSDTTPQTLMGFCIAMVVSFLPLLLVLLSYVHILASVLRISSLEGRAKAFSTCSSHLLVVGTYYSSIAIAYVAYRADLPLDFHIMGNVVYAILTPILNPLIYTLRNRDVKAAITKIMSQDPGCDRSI
Conditions: receptor expressed in the epithelium of human hair follicles.

The test system of data set [2] is hair shaft, hair matrix keratinocytes. Conditions: studies have shown.

Turning to `CC1=CCC(CCC(C)C(C)O)C1(C)C` (stereo not shown) [Sandal pentanol, 3-methyl-5-(2,2,3-trimethylcyclopent-3-en-1-yl)pentan-2-ol], the “Effect on the olfactory receptor OR2AT4” value in data set [1] is given as “stimulatory effect”.

With `Cn1c(=O)c2c(ncn2C)n(C)c1=O` [caffeine, 1,3,7-trimethylxanthine], in data set [2], the “Effect on anagen duration” value is reported as “prolonges anagen duration”, the “Effect on hair shaft elongation” value is “enhances the hair shaft elongation” and the “Effect on proliferation of hair matrix keratinocytes” value is “stimulates the proliferation of hair matrix keratinocytes”.
